Key:
[1] = system: cellules rétiniennes épithéliales ARPE-19; experiment: Cytolysis after 30 min or 5 min exposure (Example 4); type: cell-based
Experimental: (§1) Dans cet essai, on évalue également l'influence de la présence d'eau lourde dans les solutions sur leur cytotoxicité vis-à-vis de cellules rétiniennes épithéliales ARPE-19 fournies par ATCC, dans les mêmes conditions générales que dans l'exemple 1.
(§2) Les cellules sont exposées aux solutions 30 minutes dans une première série d'essais, et cinq minutes dans une deuxième série d'essais. Des mesures de cytolyse sont réalisées 1,5 h et 48 h après ce traitement.
(§3) Les mêmes mesures sont effectuées à titre de comparaison sur composition de Monoblue® 0,15% commercialisée par la société Arcadophta, Toulouse, France, sur une solution d'eau oxygénée 100mM et sur une solution saline d'irrigation intraoculaire (BSS).

[2] = system: cellules rétiniennes épithéliales ARPE-19; experiment: Number of cells after exposure (Example 4); type: cell-based
Experimental: as §1, §2, §3

[3] = Exposition 5 min, culture 48 h après exposition
[4] = Exposition 30 min, culture 1 h30 après exposition

% Cellules cytolysées Moyenne [1, 3]: 88,3% | % Cellules cytolysées Moyenne [1, 4]: 73,63% | Nombre de cellules Moyenne [2, 3]: 129,00 | Nombre de cellules Moyenne [2, 4]: 29,33
Substance: eau oxygénée [H2O2 100mM]

— patent EP2758042B1, “STABLE, LOW-TOXICITY, STERILIZABLE COMPOSITION FOR OPHTHALMIC DYING” (Arcadophta, priority 2011, dated 2013)
